≈ marks a conversion by molar mass, not a printed value.
Experiments:
[1] = tested on: Bacillus cereus; assay: Antibacterial activity against Bacillus cereus NCIM 2156 assessed as reduction in bacterial growth incubated for 18 to 24 hrs by broth microdilution method; type: functional; settings: time 18-24 hrs
[2] = tested on: Bacillus subtilis; assay: Antibacterial activity against Bacillus subtilis NCIM 2063 assessed as reduction in bacterial growth incubated for 18 to 24 hrs by broth microdilution method; type: functional; settings: time 18-24 hrs
[3] = tested on: Proteus mirabilis; assay: Antibacterial activity against Proteus mirabilis NCIM 2241 assessed as reduction in bacterial growth incubated for 18 to 24 hrs by broth microdilution method; type: functional; settings: time 18-24 hrs
[4] = tested on: Pseudomonas aeruginosa; assay: Antibacterial activity against Pseudomonas aeruginosa NCIM 2036 assessed as reduction in bacterial growth incubated for 18 to 24 hrs by broth microdilution method; type: functional; settings: time 18-24 hrs
[5] = tested on: Proteus vulgaris; assay: Antibacterial activity against Proteus vulgaris NCIM 2027 assessed as reduction in bacterial growth incubated for 18 to 24 hrs by broth microdilution method; type: functional; settings: time 18-24 hrs
[6] = tested on: Escherichia coli; assay: Antibacterial activity against Escherichia coli NCIM 2065 assessed as reduction in bacterial growth incubated for 18 to 24 hrs by broth microdilution method; type: functional; settings: time 18-24 hrs
[7] = tested on: Staphylococcus aureus; assay: Antibacterial activity against Staphylococcus aureus NCIM 2079 assessed as reduction in bacterial growth incubated for 18 to 24 hrs by broth microdilution method; type: functional; settings: time 18-24 hrs
[8] = tested on: Staphylococcus aureus; assay: Antibacterial activity against Staphylococcus aureus assessed as reduction in bacterial growth by broth microdilution method; type: functional
[9] = tested on: Escherichia coli; assay: Antibacterial activity against Escherichia coli assessed as reduction in bacterial growth by broth microdilution method; type: functional
[10] = tested on: Pseudomonas aeruginosa; assay: Antibacterial activity against Pseudomonas aeruginosa MTCC 1034 assessed as reduction in bacterial growth; type: functional
[11] = tested on: Bacillus subtilis; assay: Antibacterial activity against Bacillus subtilis ATCC 6633 assessed as reduction in microbial growth; type: functional
[12] = tested on: Micrococcus luteus; assay: Antibacterial activity against Micrococcus luteus assessed as reduction in microbial growth; type: functional
[13] = tested on: Proteus vulgaris; assay: Antibacterial activity against Proteus vulgaris ATCC 3851 assessed as reduction in microbial growth; type: functional
[14] = tested on: Escherichia coli; assay: Antibacterial activity against Escherichia coli ATCC 8739 assessed as reduction in bacterial growth by micro-broth dilution method; type: functional
[15] = tested on: Bacillus subtilis; assay: Antibacterial activity against Bacillus subtilis MTCC 441 assessed as reduction in bacterial growth; type: functional
[16] = tested on: Staphylococcus aureus; assay: Antibacterial activity against Staphylococcus aureus ATCC 29213 assessed as reduction in bacterial growth by micro-broth dilution method; type: functional
[17] = tested on: Bacillus subtilis; assay: Antibacterial activity against Bacillus subtilis assessed as reduction in bacterial growth; type: functional
[18] = tested on: Pseudomonas aeruginosa; assay: Antibacterial activity against Pseudomonas aeruginosa MCCB 0035 assessed as reduction in bacterial growth by micro-broth dilution method; type: functional
[19] = tested on: Micrococcus luteus; assay: Antibacterial activity against Micrococcus luteus IFC 12708 assessed as reduction in microbial growth; type: functional
[20] = tested on: Salmonella typhimurium; assay: Antibacterial activity against Salmonella typhimurium SL1344 assessed as reduction in microbial growth; type: functional, Salmonella enterica subsp. enterica serovar Typhimurium; settings: Salmonella enterica
[21] = tested on: Escherichia coli; assay: Antibacterial activity against Escherichia coli ATCC 25922 assessed as reduction in microbial growth; type: functional
[22] = tested on: Staphylococcus aureus; assay: Antibacterial activity against Staphylococcus aureus ATCC 6538p assessed as reduction in microbial growth; type: functional
[23] = tested on: Proteus vulgaris; assay: Antibacterial activity against Proteus vulgaris assessed as reduction in bacterial growth; type: functional
[24] = tested on: Klebsiella pneumoniae; assay: Antibacterial activity against Klebsiella pneumoniae assessed as inhibition of bacterial growth; type: functional
[25] = tested on: Staphylococcus aureus; assay: Antibacterial activity against Staphylococcus aureus assessed as inhibition of bacterial growth; type: functional
[26] = tested on: Staphylococcus aureus; assay: Antibacterial activity against Staphylococcus aureus MTCC 3160 assessed as reduction in bacterial growth; type: functional
[27] = tested on: Pseudomonas aeruginosa; assay: Antibacterial activity against Pseudomonas aeruginosa assessed as reduction in bacterial growth; type: functional
[28] = tested on: Staphylococcus aureus; assay: Antibacterial activity against Staphylococcus aureus; type: functional
[29] = tested on: Aspergillus niger; assay: Antifungal activity against Aspergillus niger assessed as fungal growth inhibition; type: functional
[30] = tested on: Pichia kudriavzevii; assay: Antifungal activity against Candida krusei IFRC 1012 assessed as reduction in fungal growth by CLSI based micro-dilution asssay; type: functional
[31] = tested on: Candida albicans; assay: Antifungal activity against Candida albicans Y0109 assessed as reduction in fungal growth incubated for 24 hrs by NCCLS based assay; type: functional
[32] = tested on: Nakaseomyces glabratus; assay: Antifungal activity against Candida glabrata 537 assessed as reduction in fungal growth incubated for 72 hrs by NCCLS based assay; type: functional
[33] = tested on: Nannizzia gypsea; assay: Antifungal activity against Microsporum gypseum assessed as reduction in fungal growth incubated for 5 to 7 days by NCCLS based assay; type: functional; settings: time 5-7 day
[34] = tested on: Cryptococcus neoformans; assay: Antifungal activity against Cryptococcus neoformans assessed as fungal growth inhibition by CLSI based method; type: functional
[35] = tested on: Cryptococcus neoformans; assay: Antifungal activity against Cryptococcus neoformans 32609 assessed as reduction in fungal growth incubated for 72 hrs by NCCLS based assay; type: functional
[36] = tested on: Candida albicans; assay: Antifungal activity against Candida albicans assessed as fungal growth inhibition by CLSI based method; type: functional
[37] = tested on: Candida tropicalis; assay: Antifungal activity against Candida tropicalis IFRC 1057 assessed as reduction in fungal growth by CLSI based micro-dilution asssay; type: functional
[38] = tested on: Aspergillus fumigatus; assay: Antifungal activity against Aspergillus fumigatus 7544 assessed as reduction in fungal growth incubated for 5 to 7 days by NCCLS based assay; type: functional; settings: time 5-7 day
[39] = tested on: Candida albicans; assay: Antifungal activity against Candida albicans IFRC 194 assessed as reduction in fungal growth by CLSI based micro-dilution asssay; type: functional
[40] = tested on: Aspergillus niger; assay: […] activity against Aspergillus niger NCIM 2191 assessed as reduction in […] by micro-broth dilution method; type: functional
[41] = tested on: Candida albicans; assay: Antifungal activity against Candida albicans SC5314 assessed as reduction in fungal growth incubated for 24 hrs by NCCLS based assay; type: functional
[42] = tested on: Nakaseomyces glabratus; assay: Antifungal activity against Candida glabrata assessed as reduction in fungal growth by CLSI based micro-dilution asssay; type: functional
[43] = tested on: Trichophyton rubrum; assay: Antifungal activity against Trichophyton rubrum assessed as reduction in fungal growth incubated for 5 to 7 days by NCCLS based assay; type: functional; settings: time 5-7 day
[44] = tested on: Candida parapsilosis; assay: Antifungal activity against Candida parapsilosis IFRC 1269 assessed as reduction in fungal growth by CLSI based micro-dilution asssay; type: functional; settings: Lodderomyces parapsilosis
[45] = tested on: Aspergillus fumigatus; assay: […] activity against Aspergillus fumigatus NCIM 2081 assessed as reduction in […] by micro-broth dilution method; type: functional
[46] = tested on: Candida albicans; assay: Antifungal activity against Candida albicans NCIM 2087 assessed as fungal growth inhibition; type: functional
[47] = tested on: Candida albicans; assay: Antifungal activity against Candida albicans MTCC 227 assessed as inhibition of fungal growth; type: functional
[48] = tested on: Staphylococcus aureus; assay: Antibacterial activity against Staphylococcus aureus ATCC 6538P; type: functional
[49] = tested on: Pseudomonas aeruginosa; assay: Antibacterial activity against Pseudomonas aeruginosa ATCC 9027; type: functional
[50] = tested on: Escherichia coli; assay: Antibacterial activity against Escherichia coli ATCC 8739; type: functional

NC(=O)NCn1nc(NCCCNc2ccnc3cc(Cl)ccc23)n(N)c1=S
MIC [1]: 3.12 µg/mL (≈ 7.41 µM)
MIC [2]: 12.5 µg/mL (≈ 29.6 µM)
MIC [3]: 12.5 µg/mL (≈ 29.6 µM)
MIC [4]: 50 µg/mL (≈ 119 µM)
MIC [5]: 12.5 µg/mL (≈ 29.6 µM)
MIC [6]: 3.12 µg/mL (≈ 7.41 µM)
MIC [7]: 6.25 µg/mL (≈ 14.8 µM)

CC(C)Cc1ccc(C(C)C(=O)NC(Cc2cn(Cc3cn(CC(=O)Nc4ccccc4Cl)nn3)c3ccccc23)C(=O)NC(Cc2ccccc2)C(N)=O)cc1 (stereo not drawn)
MIC [8]: 25 µg/mL (≈ 31.8 µM)

CC(=O)NCn1nc(NCCCNc2ccnc3cc(Cl)ccc23)n(N)c1=S
MIC [1]: 6.25 µg/mL (≈ 14.8 µM)
MIC [2]: 12.5 µg/mL (≈ 29.7 µM)
MIC [3]: 12.5 µg/mL (≈ 29.7 µM)
MIC [4]: 25 µg/mL (≈ 59.4 µM)
MIC [5]: 12.5 µg/mL (≈ 29.7 µM)
MIC [6]: 12.5 µg/mL (≈ 29.7 µM)
MIC [7]: 6.25 µg/mL (≈ 14.8 µM)

CC(C)Cc1ccc(C(C)C(=O)NC(Cc2cn(Cc3cn(CC(=O)Nc4ccccc4[N+](=O)[O-])nn3)c3ccccc23)C(=O)NC(Cc2ccccc2)C(N)=O)cc1 (stereo not drawn)
MIC [9]: 25 µg/mL (≈ 31.3 µM)

CC1(C)S[C@@H]2[C@H](NC(=O)[C@H](N)c3ccccc3)C(=O)N2[C@H]1C(=O)O [AMPICILLIN]
MIC [10]: 0.5 µg/mL (≈ 1.43 µM)
MIC [11]: 1.56 µg/mL
MIC [12]: 1.56 µg/mL
MIC [13]: 1.56 µg/mL
MIC [14]: 1 µg/mL (≈ 2.86 µM)
MIC [15]: 0.5 µg/mL (≈ 1.43 µM)
MIC [16]: 2 µg/mL (≈ 5.72 µM)
MIC [17]: 1.56 µg/mL (≈ 4.46 µM)
MIC [18]: 4 µg/mL (≈ 11.4 µM)
MIC [19]: 1.56 µg/mL
MIC [20]: 1.56 µg/mL
MIC [21]: 1.56 µg/mL
MIC [22]: 1.56 µg/mL
MIC [23]: 1.56 µg/mL (≈ 4.46 µM)

O=C(O)c1cn(C2CC2)c2cc(N3CCNCC3)c(F)cc2c1=O [CIPROFLOXACIN]
MIC [1]: 3.12 µg/mL (≈ 9.43 µM)
MIC [2]: 12.5 µg/mL (≈ 37.7 µM)
MIC [3]: 12.5 µg/mL (≈ 37.7 µM)
MIC [24]: 16 µg/mL (≈ 48.3 µM)
MIC [5]: 12.5 µg/mL (≈ 37.7 µM)
MIC [17]: 18 µg/mL (≈ 54.3 µM)
MIC [25]: 8 µg/mL (≈ 24.1 µM)
MIC [26]: 9 µM (≈ 2.98 µg/mL)
MIC [27]: 18 µg/mL (≈ 54.3 µM)
MIC [28]: 9 µM (≈ 2.98 µg/mL)

OC(Cn1cncn1)(Cn1cncn1)c1ccc(F)cc1F [FLUCONAZOLE]
MIC [29]: 20.4 µg/mL (≈ 66.6 µM)
MIC [30]: 0.5 µg/mL (≈ 1.63 µM)
MIC80 [31]: 0.25 µg/mL (≈ 0.816 µM)
MIC80 [32]: 2 µg/mL (≈ 6.53 µM)
MIC80 [33]: 32 µg/mL (≈ 104 µM)
MIC [34]: 4 µg/mL (≈ 13.1 µM)
MIC80 [35]: 1 µg/mL (≈ 3.27 µM)
MIC [36]: 4 µg/mL (≈ 13.1 µM)
MIC [37]: 0.5 µg/mL (≈ 1.63 µM)
MIC80 [38]: > 64 µg/mL
MIC [39]: 0.5 µg/mL (≈ 1.63 µM)
MIC [40]: 4 µg/mL (≈ 13.1 µM)
MIC [26]: 40 µM (≈ 12.3 µg/mL)
MIC80 [41]: 0.5 µg/mL (≈ 1.63 µM)
MIC [42]: 0.5 µg/mL (≈ 1.63 µM)
MIC80 [43]: 8 µg/mL (≈ 26.1 µM)
MIC [44]: 0.5 µg/mL (≈ 1.63 µM)
MIC [45]: 16 µg/mL (≈ 52.2 µM)
MIC [46]: 1 µg/mL (≈ 3.27 µM)
MIC [47]: 40 µM (≈ 12.3 µg/mL)

CCn1cc(C(=O)O)c(=O)c2cc(F)c(N3CCNCC3)cc21 [NORFLOXACIN]
MIC [48]: 0.125 µg/mL (≈ 0.391 µM)
MIC [49]: 0.125 µg/mL (≈ 0.391 µM)
MIC [50]: 0.125 µg/mL (≈ 0.391 µM)

From ChEMBL document CHEMBL5634077, “Recent advances in 1,2,3- and 1,2,4-triazole hybrids as antimicrobials and their SAR: A critical review” (2023)
